Literature values as cited in patent US20240415845A1, “Compositions of Iboga Alkaloids and Methods of Treatment” (priority 2022, published 2024).

Settings: in vivo; cited from earlier work

## CC[C@H]1CC2C[C@H]3c4[nH]c5ccc(O)cc5c4CCN(C2)C13 [noribogaine, Noribogaine]
  half-life: 28 to 49 h
